Several values for one entry are separate records, joined by “and”; a condition that tells them apart may be missing. Equal values may be shown once.
What was measured:
[1] = tested on: Powassan virus (LB strain); type: cell-based
[2] = tested on: WNV NY99; assay: In vivo antiviral efficacy in WNV NY99-challenged mice; design: species or system ICR mice; key to Clinical score, day 1 post-challenge / Clinical score, day 2 post-challenge / Clinical score, day 3 post-challenge / Clinical score, day 4 post-challenge / Clinical score, day 5 post-challenge / Clinical score, day 6 post-challenge / Clinical score, day 7 post-challenge / Clinical score, day 8 post-challenge / Clinical score, day 9 post-challenge / Clinical score, day 10 post-challenge / Clinical score, day 11 post-challenge / Clinical score, day 12 post-challenge / Clinical score, day 13 post-challenge / Clinical score, day 14 post-challenge: 0 is normal; 1 is questionable illness; 2 is distinct mild illness; 3 is distinct disease; 4 is serious disease/moribund
[3] = tested on: West Nile virus (NY99 strain); assay: In vitro West Nile virus efficacy assay (plaque assay); type: cell-based
[4] = In vivo toxicity assay (mouse weight); design: species or system ICR mice; settings: 50 mg/kg IP
Procedure: Two groups of 3 mice each were either injected with 150 μL of 50 mg/kg BG-323 (synthesized by Brian McNaughton’s group at CSU [15]) formulated in 10% DMSO, 15% solutol and 75% saline or DMSO vehicle in the same formulation. Mice were weighed daily for 7 days and percent of maximum weight loss was calculated.

[5] = tested on: Caco-2 cells; assay: Caco-2 cell permeability assay; settings: 5 μM, Caco-2, pH 7.4, 120 min
[6] = biological target: CYP P450 isoform 3A4 (Homo sapiens, UniProt P08684); assay: CYP P450 binding assay, isoform 3A4; settings: 10 μM, human liver microsomes, midazolam substrate, vs ketoconazole positive control
Chain of CYP P450 isoform 3A4 (P08684 whole entry, canonical isoform): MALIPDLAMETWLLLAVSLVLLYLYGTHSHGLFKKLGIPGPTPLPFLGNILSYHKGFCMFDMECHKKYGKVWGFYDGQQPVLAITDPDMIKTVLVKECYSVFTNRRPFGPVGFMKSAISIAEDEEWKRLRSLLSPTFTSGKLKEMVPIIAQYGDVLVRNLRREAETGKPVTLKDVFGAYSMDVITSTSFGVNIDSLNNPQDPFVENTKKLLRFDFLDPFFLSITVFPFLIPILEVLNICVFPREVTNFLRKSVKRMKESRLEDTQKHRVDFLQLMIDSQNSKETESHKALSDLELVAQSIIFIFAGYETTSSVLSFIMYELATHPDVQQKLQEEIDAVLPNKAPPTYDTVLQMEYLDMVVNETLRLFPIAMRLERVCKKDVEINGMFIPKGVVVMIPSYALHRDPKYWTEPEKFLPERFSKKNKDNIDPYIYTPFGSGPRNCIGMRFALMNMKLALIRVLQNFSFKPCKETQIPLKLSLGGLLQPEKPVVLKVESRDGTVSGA

[7] = tested on: West Nile virus (subtype Kunjin); design: method as in PMID 22674988; settings: 75 μM, cell culture, previously tested; cited from earlier work
[8] = In vivo half-life (T1/2), serum LC/MS/MS
[9] = tested on: WNV (Kunjin subtype); assay: BG-323 resistance study, six rounds of infection; type: cell-based, West Nile virus; settings: 75 μM BG-323, BHK21 cells, 100 PFU Kunjin per round, six 3-day rounds
Procedure: On day one, BHK-21 cells (ATCC) were seeded in 12-well plates at 50,000 cells/mL and allowed to attach overnight. The following day, each of 9 wells was infected with 100 PFU WNV (Kunjin subtype) in complete DMEM (cDMEM) and 3 uninfected control wells received cDMEM only. Cells were incubated with media for 2 hr at 37°C to allow cells to become infected. After 2 hr, infected cDMEM was replaced with new media containing DMSO or 75 μM BG-323. Each condition was run in triplicate. Following DMSO or drug administration, cells were incubated at 37°C. On day 3, samples were collected and stored at -80°C. Viral titers were calculated by plaque assay as previously described on one tube of the day 3 samples for each replicate. 100 PFU from an unthawed day 3 sample was used to infect fresh BHK 21 cells to start the next round of infection. The three-day cycle was considered one round of infection and the study continued for 6 rounds. The infectious input of Kunjin virus and the concentrations (75 μM) of BG-323 were held constant throughout the study.

[10] = Plasma protein binding assay (Rapid Equilibrium Dialysis); type: in vitro ADME; settings: human plasma, 5 μM, pH 7.4, 37°C, 4 hr
[11] = tested on: Yellow fever viruses; settings: cited from earlier work
[12] = biological target: CYP P450 isoform 2C9 (Homo sapiens, UniProt P11712); assay: CYP P450 binding assay, isoform 2C9; settings: 10 μM, human liver microsomes, diclofenac substrate, vs sulfaphenazole positive control
Chain of CYP P450 isoform 2C9 (P11712 whole entry, canonical isoform): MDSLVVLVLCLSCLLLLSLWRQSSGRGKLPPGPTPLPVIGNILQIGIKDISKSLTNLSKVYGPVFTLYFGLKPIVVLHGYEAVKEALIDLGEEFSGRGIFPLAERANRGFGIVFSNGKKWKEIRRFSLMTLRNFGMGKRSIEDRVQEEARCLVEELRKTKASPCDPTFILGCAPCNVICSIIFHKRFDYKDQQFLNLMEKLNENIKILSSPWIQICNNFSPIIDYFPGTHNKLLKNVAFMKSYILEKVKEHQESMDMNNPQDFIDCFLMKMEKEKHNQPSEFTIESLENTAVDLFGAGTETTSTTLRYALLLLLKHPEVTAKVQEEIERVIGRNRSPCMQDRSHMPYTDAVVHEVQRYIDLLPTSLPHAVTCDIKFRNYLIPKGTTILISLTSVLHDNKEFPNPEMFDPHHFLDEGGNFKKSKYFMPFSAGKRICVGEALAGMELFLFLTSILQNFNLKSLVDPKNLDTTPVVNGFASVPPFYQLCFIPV

[13] = Metabolic stability assay in liver microsomes; settings: 1 μM, human liver microsomes 0.5 mg/mL, NADPH
[14] = mice, 0.38 mL bolus of 5 mg/mL, serum

CC(C)(C)c1ccc(/C=C2/SC(=S)N(CCC(=O)O)C2=O)cc1 [BG-323, (E)-{3-[5-94-tert-butylbenzylidene0-4-oxo-2-thioxo-1,3-thiazolidin-3-yl]propanoic acid}]
reduction in viral titers compared to DMSO controls (Powassan) [1]: ~5 fold
reduction of Powassan virus titers [1]: approximately 5 logs
average viral titers in sera on day three ([2]; 500 PFU WNV NY99 footpad, 50 mg/kg IP BID 5 days, day 3 post challenge): 1.6x10^5 PFU/mL
Clinical score, day 1 post-challenge ([2]; individual WNV NY99-challenged mice, 50 mg/kg IP BID 5 days, day 1): 0
Clinical score, day 2 post-challenge ([2]; individual WNV NY99-challenged mice, 50 mg/kg IP BID 5 days, day 2): 0
Clinical score, day 3 post-challenge ([2]; individual WNV NY99-challenged mice, 50 mg/kg IP BID 5 days, day 3): 0
Clinical score, day 4 post-challenge ([2]; individual WNV NY99-challenged mice, 50 mg/kg IP BID 5 days, day 4): 0
Clinical score, day 5 post-challenge ([2]; individual WNV NY99-challenged mice, 50 mg/kg IP BID 5 days, day 5): 0
Clinical score, day 6 post-challenge ([2]; individual WNV NY99-challenged mice, 50 mg/kg IP BID 5 days, day 6): 1
Clinical score, day 7 post-challenge ([2]; individual WNV NY99-challenged mice, 50 mg/kg IP BID 5 days, day 7): 1 and 4
Clinical score, day 8 post-challenge ([2]; individual WNV NY99-challenged mice, 50 mg/kg IP BID 5 days, day 8): 1 and 4
Clinical score, day 9 post-challenge ([2]; individual WNV NY99-challenged mice, 50 mg/kg IP BID 5 days, day 9): 4 and 2 and 1
Clinical score, day 10 post-challenge ([2]; individual WNV NY99-challenged mice, 50 mg/kg IP BID 5 days, day 10): 4 and 1
Clinical score, day 11 post-challenge ([2]; individual WNV NY99-challenged mice, 50 mg/kg IP BID 5 days, day 11): 1
Clinical score, day 12 post-challenge ([2]; individual WNV NY99-challenged mice, 50 mg/kg IP BID 5 days, day 12): 0
Clinical score, day 13 post-challenge ([2]; individual WNV NY99-challenged mice, 50 mg/kg IP BID 5 days, day 13): 0
Clinical score, day 14 post-challenge ([2]; individual WNV NY99-challenged mice, 50 mg/kg IP BID 5 days, day 14): 0
survival probability (Kaplan-Meier) versus control ([2]; mouse, in vivo): approximately the same between the two groups
reduction of West Nile virus titers [3]: approximately 5 logs
reduction in viral titers compared to DMSO controls (WNV) ([3]; 75 μM, BHK21 cells, 72 hours, Fig 1 legend): ~5 fold
gross toxicity in mice ([4]; 7 days): does not appear to be grossly toxic
average weight loss percentage (maximum weight loss) ([4]; mice, weights monitored 7 days): 3.5%
Average Papp, A to B ([5]; A to B): 49.4±1 x 10^−6 cm/s
Percent Recovery, A to B ([5]; A to B): 43%
Average Papp, B to A ([5]; B to A): 49.6±9.5 x 10^−6 cm/s
Percent Recovery, B to A ([5]; B to A): 57%
percent inhibition of CYP 3A4 [6]: insignificant compared to positive controls
log reduction of titers, West Nile virus (subtype Kunjin) [7]: approximately 2 log
T1/2 in mice ([8]; 0.38 mL bolus of 5 mg/mL, serum): 1.75 h
Initial concentration (C0) [8, 14]: 19275 ng/mL
elimination rate constant (Kel) [8, 14]: 0.395 h⁻¹
average serum concentration five min after administration ([8]; mice, 0.38 mL of 5 mg/mL, 5 min): ~21,000 ng/mL
emergence of resistance (viral titers over time) [9]: no significant increase in viral titers over time
percent bound to plasma proteins [10]: 99.9%
log reduction of titers, Yellow fever virus [11]: ~1 log
percent inhibition of CYP 2C9 [12]: insignificant compared to positive controls
T1/2 in human liver microsomes [13]: > 1 h
in vitro intrinsic clearance (CLint) [13]: < 0.023 mL/min/mg protein
percent of initial concentration remaining at 60 minutes ([13]; 60 min): 85%

From paper PMC4468182, “Murine Efficacy and Pharmacokinetic Evaluation of the Flaviviral NS5 Capping Enzyme 2-Thioxothiazolidin-4-One Inhibitor BG-323” (PLoS ONE, 2015)
